Source: US5376643A, “Composition for application to hair” (priority 1986, dated 1994)
Where two headings read alike, the source gives them in different places.

How the values were obtained:
grayed hair [1] = assay: Half-Head technique: preventing graying of the hair and restoring grayed hair to its natural color (Example 1 procedure); assay type: in vivo, human (men and women); details: for effect of preventing graying and restoring grayed hair, compared with Example 2 / amount of grayed hair / effect of preventing graying of the hair and restoring grayed hair to its natural color / effect of preventing graying and restoring grayed hair / effect on graying, compared with Example 12: in words; for effect of preventing graying and restoring grayed hair, compared with Example 2: hair cream, used instead of N^6,O^2'-DScAMP-Na; for Comp. Sample is better / Comp. Sample is somewhat better / Same / This Invention is better / This Invention is somewhat better: 3 months; for amount of grayed hair / effect of preventing graying of the hair and restoring grayed hair to its natural color: compared with comparative sample free from the component; for effect of preventing graying and restoring grayed hair: hair tonic; for effect on graying, compared with Example 12: hair tonics, used in place of FAD-2Na
Source text: The effectiveness of the hair tonics thus prepared were estimated in the following manner: Twenty statistically equivalent persons (comprising men and women aged 30 to 60 years) were selected and Samples of the hair tonics were applied to their scalps in accordance with the Half-Head technique, in which Samples were separately applied to the right and left half portions of the scalp, twice a day (in the morning and at night) for three months. The effects of preventing graying of the hair and restoring grayed hair to its natural color were estimated by comparing the conditions of the portions observed before and after the application of Samples.

grayed hair [2] = assay: Half-Head technique, two groups of 20 persons: preventing graying of the hair and restoring grayed hair (Example 6 procedure); assay type: in vivo, human (men and women); details: in words; hair creams
Source text: Two groups each of which comprised 20 persons (50 to 60 years old; comprising men and women) were selected and the hair tonic Samples (S-I and S-II) were separately applied to scalp of each person of one group in accordance with Half-Head technique wherein the hair tonics I and II were separately applied to the right half of the scalp and the left half thereof, on the other hand Samples (S-II and S-III) were likewise separately applied to each person of the other group in the same manner twice a day (in the morning and at night) for 3 months.

[3] = in words; cited from earlier work
[4] = in words; cited from earlier work; remark: listed apart in the source
[5] = Acute Oral Toxicity (rat); details: in vivo
guinea pig [6] = assay: Phototoxicity (guinea pig); assay type: in vivo
guinea pig [7] = assay: Skin Sensitization (guinea pig); assay type: in vivo
guinea pig [8] = assay: Photosensitization (guinea pig); assay type: in vivo
scalp [9] = details: in vivo
Source text: (§1) Twenty statistically equivalent persons (comprising men and women aged 30 to 60 years) were selected and Samples of the hair tonics were applied to their scalps in accordance with the Half-Head technique, in which Samples were separately applied to the right and left half portions of the scalp, twice a day (in the morning and at night) for three months. The effects of preventing graying of the hair and restoring grayed hair to its natural color were estimated by comparing the conditions of the portions observed before and after the application of Samples.

guinea pig [10] = details: in vivo
rabbit = details: in vivo
human = details: in vivo
[11] = in vivo
[12] = Safety examination (overall, in words); details: same procedures as in Example 1
scalp [13] = assay: Condition of the scalp during and after use for 3 months
Source text: as §1

[14] = Table III, of 20 persons, hair tonic with 0.05% vs tonic without, twice a day
[15] = Table XXV, hair tonic with 0.1% vs tonic without
[16] = Table VIII, milky lotion with 0.2% vs lotion without
[17] = Table X, hair cream with 0.8% vs cream without

In the case of Nc1ncnc2c1nc(Br)n2[C@@H]1O[C@@H]2COP(=O)(O)O[C@H]2[C@H]1O [8-BrcAMP-Na], the “effect of preventing graying and restoring grayed hair, compared with Example 2” value (shortened to “effect … compared with Example 2”) (grayed hair [1]) is reported as “Substantially the same excellent effect as in Example 2”.

With CCCC(=O)O[C@@H]1[C@@H]2OP(=O)(O)OC[C@H]2O[C@H]1n1cnc2c(N)ncnc21 [O^2 -MBcAMP-Na] the “effect on graying, compared with Example 7” value (grayed hair [2]) was “approximately the same results as those in Example 7”.

For Nc1ncnc2c1nc(O)n2[C@@H]1O[C@@H]2COP(=O)(O)O[C@H]2[C@H]1O [8-OHcAMP-Na], the “effect … compared with Example 2” value (grayed hair [1]) was “Substantially the same excellent effect as in Example 2”.

With CCCCCCCCCCCOCC(COCCCCCCCCCCC)OCCCCCCCCCCC [triundecyl glycerylether] the “effect on graying, compared with Example 7” value (grayed hair [2]) was “approximately the same results as in Example 7”.

For C=C1CC[C@H](O)C/C1=C/C=C1\CCC[C@]2(C)[C@@H]([C@H](C)CCCC(C)C)CC[C@@H]12 [vitamin D3], the “stability in the air” value [3] is given as “extremely unstable in the air and easily undergo oxidation” and the side-effects [4] is given as “tend to cause side-effectssuch as hypervitaminosis D or hypercalcemia”.

In the case of Nc1ncnc2c1nc(Sc1ccc(Cl)cc1)n2[C@@H]1O[C@@H]2COP(=O)(O)O[C@H]2[C@H]1O [8-C1PhScAMP-Na], the “effect … compared with Example 2” value (grayed hair [1]) is reported as “Substantially the same excellent effect as in Example 2”.

With Cc1cc2nc3c(=O)[nH]c(=O)nc-3n(C[C@H](O)[C@H](O)[C@H](O)COP(=O)(O)OP(=O)(O)OC[C@H]3O[C@@H](n4cnc5c(N)ncnc54)[C@H](O)[C@@H]3O)c2cc1C [FAD, flavin adenine dinucleotide] the “effect on graying, compared with Example 7” value (grayed hair [2]) was “approximately the same results as those in Example 7”.

For CCCC(=O)Nc1ncnc2c1ncn2[C@@H]1O[C@@H]2COP(=O)(O)O[C@H]2[C@H]1OC(=O)CCC [N^6,O^2'-DBcAMP-Na], the “Comp. Sample is better” value (grayed hair [1]; [14]) was 0, the “Comp. Sample is somewhat better” value (grayed hair [1]; [14]) was 0 and the Same (grayed hair [1]; [14]) was 2. The “This Invention is better” value (grayed hair [1]; [14]) was 11, the “This Invention is somewhat better” value (grayed hair [1]; [14]) was 7 and the “amount of grayed hair” value (grayed hair [1]) was “reduced the amount of grayed hair more effectively than the comparative hair tonic”. For the same molecule, the “effect of preventing graying of the hair and restoring grayed hair to its natural color” value (“effect … to its natural color” below) (grayed hair [1]) was “remarkable effect”, the “effect of preventing graying and restoring grayed hair” value (grayed hair [1]; amount of 0.005%) was “little effect” and the “effect of preventing graying and restoring grayed hair” value (grayed hair [1]; amount of 0.01) was “effective”. The LD50 [5] was ≥ 5000 mg/kg, the Phototoxicity (guinea pig [6]) was “negative” and the “Skin Sensitization” value (guinea pig [7]) was “negative”. The Photosensitization (guinea pig [8]) was “negative”, the “abnormality in the condition of the scalp” value (“abnormality in the condition” for short) (scalp [9]) was “No abnormality was observed” and the “Primary Skin Irritation” value (guinea pig [10]) was “non-irritant”. For the same molecule, the “Ocular-mucous Membrane Irritation” value (rabbit) was “non-irritant”, the “Human Patch Test” value (human) was “non-irritant” and the safety [11] was “extremely high”.

For CC(=O)Nc1ncnc2c1nc(N)n2C1OC2COP(=O)([O-])OC2C1OC(C)=O.[Na+] (stereo not drawn) [N^6,O^2'-DA-8-NH2 cAMP-Na], the “effect … compared with Example 2” value (grayed hair [1]) was “Substantially the same excellent effect as in Example 2”.

For CCCCCCCCC(=O)O [nonanoic acid], the “effect on graying, compared with Example 7” value (grayed hair [2]) was “approximately the same results as in Example 7”.

With Cc1cc2nc3c(=O)[nH]c(=O)nc-3n(C[C@H](O)[C@H](O)[C@H](O)COP(=O)(O)OP(=O)(O)OC[C@H]3O[C@@H](n4cnc5c(N)ncnc54)[C@H](O)[C@@H]3O)c2cc1C [FAD-2Na] the “Comp. Sample is better” value (grayed hair [1]; [15]) was 0, the “Comp. Sample is somewhat better” value (grayed hair [1]; [15]) was 0 and the Same (grayed hair [1]; [15]) was 4. For the same molecule, the “This Invention is better” value (grayed hair [1]; [15]) was 8, the “This Invention is somewhat better” value (grayed hair [1]; [15]) was 8 and the safety [12] was “had no problems such as skin irritation and thus had extremely high safety”.

With CCCCCCCC(=O)OC1C2OP(=O)([O-])OCC2OC1n1cnc2c(N)ncnc21.[Na+] (stereo not drawn) [O^2'-MOcAMP-Na] the “effect on graying, compared with Example 12” value (grayed hair [1]) was “substantially the same effect as in Example 12”.

With Nc1ncnc2c1ncn2[C@@H]1O[C@@H]2COP(=O)([O-])O[C@H]2[C@H]1OC(=O)CCC(=O)O.[Na+] [O^2'-MScAMP-Na] the “Comp. Sample is better” value (grayed hair [1]; [16]) was 0, the “Comp. Sample is somewhat better” value (grayed hair [1]; [16]) was 0 and the Same (grayed hair [1]; [16]) was 3. The “This Invention is better” value (grayed hair [1]; [16]) was 10, the “This Invention is somewhat better” value (grayed hair [1]; [16]) was 7 and the “amount of grayed hair” value (grayed hair [1]) was “the amount of grayed hair was reduced”. The “effect … to its natural color” value (grayed hair [1]) was “excellent effect”, the safety [12] was “had no problems such as skin irritation and thus had extremely high safety” and the “abnormality in the condition” value (scalp [13]) was “no abnormality was observed”.

In the case of Nc1ncnc2c1nc(Cl)n2[C@@H]1O[C@@H]2COP(=O)(O)O[C@H]2[C@H]1O [8-ClcAMP-Na], the “effect … compared with Example 2” value (grayed hair [1]) is reported as “Substantially the same excellent effect as in Example 2”.

In the case of CCCCCC(=O)Nc1ncnc2c1ncn2C1OC2COP(=O)([O-])OC2C1O.[Na+] (stereo not drawn) [N^6-MHcAMP-Na], the “effect on graying, compared with Example 12” value (grayed hair [1]) is reported as “substantially the same effect as in Example 12”.

For CCCC(=O)O[C@@H]1[C@@H]2OP(=O)(O)OC[C@H]2O[C@H]1n1c(Br)nc2c(N)ncnc21 [O^2'-MB-8BrcAMP-Na], the “effect … compared with Example 2” value (grayed hair [1]) was “Substantially the same excellent effect as in Example 2”.

In the case of CCCC(=O)Nc1ncnc2c1ncn2[C@@H]1O[C@@H]2COP(=O)(O)O[C@H]2[C@H]1O [N^6-MBcAMP-Na], the “Comp. Sample is better” value (grayed hair [1]; [17]) is reported as 0, the “Comp. Sample is somewhat better” value (grayed hair [1]; [17]) is reported as 0 and the Same (grayed hair [1]; [17]) is reported as 4. The “This Invention is better” value (grayed hair [1]; [17]) was 9, the “This Invention is somewhat better” value (grayed hair [1]; [17]) was 7 and the “amount of grayed hair” value (grayed hair [1]) was “the amount of grayed hair was reduced”. For the same molecule, the “effect … to its natural color” value (grayed hair [1]) was “excellent effect”, the safety [12] was “had no problems such as skin irritation and thus had extremely high safety” and the “abnormality in the condition” value (scalp [13]) was “no abnormality was observed”.

With Nc1ncnc2c1nc(S)n2[C@@H]1O[C@@H]2COP(=O)(O)O[C@H]2[C@H]1O [8-SHcAMP-Na] the “effect … compared with Example 2” value (grayed hair [1]) was “Substantially the same excellent effect as in Example 2”.
